Legend:
Type in all cases: in vivo, rat
δ subunit mRNA = assay: Semi-quantitative RT-PCR of δ subunit in hippocampus; conditions: after progesterone withdrawal
Description: (§1) Crystalline progesterone was administered via a silicone capsule ( 1/16″ i.d., ⅛″ o.d.) implanted subcutaneously (10 mm length/100 gm body weight) in female rats (110-120 grams, in vitro studies; 220-250 grams, behavioral studies) for 21 days. Control rats were implanted with an empty capsule. […] Animals were tested 24 hours after removal of the implant.
Following isolation of total RNA from hippocampus, reverse transcription (SuperScript II, Rnase RT, GibcoBRL) yielded complementary DNA (cDNA) which was amplified with PCR methods (65) using oligonucleotide primers for the δ subunit (398 bp)(70) and GAPDH (657 bp, Operon). Twenty three to thirty amplification cycles were used for two different concentrations of cDNA (25 or 50 ng) to detect band densities within a linear range (15). Following gel electrophoresis (FMC Bioproducts), the density of DNA bands stained with ethidium bromide was quantified and normalized to the GAPDH control.

GABAR α4 subunit = assay: Western blot of α4 subunit in hippocampus after steroid and ethanol administration; conditions: steroid withdrawal after 21 days progesterone
Description: Animals were administered steroids using one of two protocols: (i) For the 48 hour steroid administration protocol, animals were injected with 10 mg/kg 3α, 5β THP in oil, i.p., on a daily basis for three days and sacrificed 1-2 hour following the final injection. Controls were injected with oil vehicle. […] At this time, the capsule was removed and the animals were injected with 17 β estradiol (2 μgs/animal) in order to reset their cycle. Animals were sacrificed 24 hours later. […] In all cases, implantation and removal of capsules were performed under halothane anesthesia. […] Therefore, this study employed the 5β isomer of the steroid.
In some groups of animals, either ethanol (0.5 g/kg in saline) or saline vehicle was administered i.p. (3×, every 40 minutes) for the final 2 hours of the respective steroid administration or withdrawal paradigm. The use of multiple injections of low doses of ethanol would approximate ethanol consumption in the human more closely than would a single injection. For the 48 hour steroid administration paradigm, animals received their first ethanol injection immediately after the steroid injection, and subsequent injections at 40 minute intervals. In all cases, animals were sacrificed 40 minutes after the final ethanol injection (2 hours after the first ethanol injection and final steroid injection). All animal protocols were carried out with the approval of the Institutional Animal Care and Use Committee.
Hippocampi removed from steroid or vehicle-treated animals were homogenized, and membranes prepared as previously described (65). Following electrophoresis on 8% SDS polyacrylamide gels, membranes were transferred to a nitrocellulose membrane (Bio-Rad, Hercules, Calif.). α4 subunit levels were detected by evaluating the band density at 67 kDa after probing with a polyclonal antibody (64). Membranes were incubated for 1-2 hours at room temperature with a 1:5000 dilution of horseradish peroxidase-conjugated donkey anti-rabbit IgG (Amersham, Arlington Heights, Ill.), and visualized with enhanced chemiluminescence with varying concentrations of protein in the linear range. Immunoreactive band densities were quantified using a CCD camera (UMAX Scanner) and one-Dscan software, which uses multiple Gaussian fits to achieve accurate band density profiles.

[1] = system: δ and α4 GABAA receptor subunit proteins; assay: Western blot of δ and α4 subunits in hippocampus after progesterone withdrawal
Description: as §1
Membranes prepared from hippocampal tissue were solubilized and electrophoresed on 9% SDS-polyacrylamide gels before transfer to a polyvinyldifluoride membrane, as described (65,69). Polyclonal antiserum against the δ subunit (Asr^318-Leu^400) was supplied by Dr. R. McKernan (Merck)(56) and is visualized as a 54 kDa band. Membranes were also probed with an antibody for the α4 GABAA receptor subunit (67 kDa) (64), developed according to a previously described protocol (38), and a commercial antibody for the control protein GAPDH (glyceraldehyde-3-phosphate dehydrogenase; 36 kDa). Membranes were incubated for 1-2 hours at room temperature with 1:10,000 (α4), 1:7,000 (δ) or 1:20,000 (GAPDH) dilution of antibody followed by addition of 1:5,000 horseradish-peroxidase-conjugated donkey anti-rabbit IgG (Amersham). Band densities were quantified using densitometry with One-Dscan software after normalization to the GAPDH control. Reagents were obtained from Sigma/Genosys.

CC(=O)[C@H]1CC[C@H]2[C@@H]3CCC4=CC(=O)CC[C@]4(C)[C@H]3CC[C@]12C [progesterone]
δ subunit mRNA in hippocampus (δ subunit mRNA): three-fold | increase of α4 expression (GABAR α4 subunit): threefold | expression of α4 subunit protein in hippocampus [1]: three-fold | expression of δ subunit protein in hippocampus [1]: three-fold
